US9783552B2, “Soluble guanylate cyclase activators” (MERCK SHARP & DOHME CORP., priority 2013, dated 2017)

Target: T1, sGC α1/β1 heterodimer (Homo sapiens, UniProt Q02108+Q02153)
T1 construct: expressed in transfected cells
T1 sequence (Q02108 1-690): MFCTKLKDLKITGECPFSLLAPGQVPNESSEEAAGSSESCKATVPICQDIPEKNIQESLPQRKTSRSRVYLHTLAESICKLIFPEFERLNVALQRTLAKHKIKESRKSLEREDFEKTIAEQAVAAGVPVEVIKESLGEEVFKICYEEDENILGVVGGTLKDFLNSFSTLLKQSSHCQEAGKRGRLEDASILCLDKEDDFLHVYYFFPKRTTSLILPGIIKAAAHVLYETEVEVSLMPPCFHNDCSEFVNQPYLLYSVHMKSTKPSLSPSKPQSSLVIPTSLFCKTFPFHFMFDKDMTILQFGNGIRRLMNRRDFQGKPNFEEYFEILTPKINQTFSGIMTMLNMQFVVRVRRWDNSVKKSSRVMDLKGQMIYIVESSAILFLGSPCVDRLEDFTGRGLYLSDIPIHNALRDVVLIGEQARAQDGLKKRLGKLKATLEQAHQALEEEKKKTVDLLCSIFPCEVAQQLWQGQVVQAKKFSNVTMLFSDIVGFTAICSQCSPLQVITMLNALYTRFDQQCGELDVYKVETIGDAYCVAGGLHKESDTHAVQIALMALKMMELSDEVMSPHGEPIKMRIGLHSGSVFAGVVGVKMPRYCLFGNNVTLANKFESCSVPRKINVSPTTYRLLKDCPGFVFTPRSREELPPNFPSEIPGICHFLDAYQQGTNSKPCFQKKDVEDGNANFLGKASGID
T1 sequence (Q02153 1-619): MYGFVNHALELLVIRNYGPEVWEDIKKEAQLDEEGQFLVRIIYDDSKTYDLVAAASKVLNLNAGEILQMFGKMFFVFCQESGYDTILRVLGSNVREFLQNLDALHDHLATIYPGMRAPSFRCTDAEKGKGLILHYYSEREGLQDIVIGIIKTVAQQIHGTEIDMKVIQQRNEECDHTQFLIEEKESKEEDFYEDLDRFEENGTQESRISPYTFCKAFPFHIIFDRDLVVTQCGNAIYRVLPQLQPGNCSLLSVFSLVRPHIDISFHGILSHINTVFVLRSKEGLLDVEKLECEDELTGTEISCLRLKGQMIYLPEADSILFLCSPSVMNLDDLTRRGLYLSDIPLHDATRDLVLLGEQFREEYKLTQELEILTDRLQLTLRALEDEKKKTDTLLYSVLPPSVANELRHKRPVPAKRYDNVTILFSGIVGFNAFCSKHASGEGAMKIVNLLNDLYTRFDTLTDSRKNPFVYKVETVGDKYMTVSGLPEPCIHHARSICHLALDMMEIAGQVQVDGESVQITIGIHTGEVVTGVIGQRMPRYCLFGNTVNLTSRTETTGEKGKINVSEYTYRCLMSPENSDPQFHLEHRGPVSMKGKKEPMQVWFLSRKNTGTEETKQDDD
Assay: Cell-Based sGC Functional Assay (CASA Assay)
Details: CHO-K1/sGC cells; for EC50: intracellular cGMP by HTRF, 1 hr at 37° C., IP from 4P fit, presence or absence of 1 μM DETA-NO not given; for Emax: cGMP as percentage of maximum cGMP production of Compound A (=100% activation), read-out: % ACT (percent activation)
How it was run: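 CHO-K1 cells stably expressing human sGC α1/β1 were incubated with compound (2.5% DMSO) for 1 hr at 37 °C with 0.5 mM IBMX, with or without 1 μM DETA-NO. Intracellular cGMP was measured by HTRF and expressed as % of the maximal cGMP produced by a reference sGC heme-dependent activator. IP and maximum fold induction came from a 4-parameter fit.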

Question: How did the EC50 turn out when `C#CC1(C)C(=O)Nc2nc(-c3nc(CCC(F)(F)C(F)(F)F)nc4c3cnn4C)nc(N)c21` (single isomer, unassigned) [Example 21, 4-Amino-5-ethynyl-5-methyl-2-(1-methyl-6-(3,3,4,4,4-pentafluorobutyl)-1H-pyrazolo[3,4-d]pyrimidin-4-yl)-5H-pyrrolo[2,3-d]pyrimidin-6(7H)-one] was run?
Answer: 92 nM

Question: And the Emax?
Answer: 106%

Question: For `[2H]C([2H])([2H])n1ncc2c(-c3nc(N)c4c(n3)NC(=O)C4(C)c3ccc(C#N)cc3)nc(CCC(F)(F)C(F)(F)F)nc21` (single isomer, unassigned) [Example 47, 4-(4-Amino-5-methyl-2-(6-(3,3,4,4,4-pentafluorobutyl)-1-trideuteriomethyl-1H-pyrazolo[3,4-d]pyrimidin-4-yl)-6-oxo-6,7-dihydro-5H-pyrrolo[2,3-d]pyrimidin-5-yl)benzonitrile], which EC50 is on record?
Answer: 30 nM

Question: And the Emax?
Answer: 95%

Question: For `Cn1ncc2c(-c3nc(N)c4c(n3)NC(=O)C4(C)c3ccc(F)cc3)nc(CCC(F)(F)F)nc21` (single isomer, unassigned) [Example 11, 4-Amino-5-(4-fluorophenyl)-5-methyl-2-(1-methyl-6-(3,3,3-trifluoropropyl)-1H-pyrazolo[3,4-d]pyrimidin-4-yl)-5H-pyrrolo[2,3-d]pyrimidin-6(7H)-one], which EC50 is on record?
Answer: 146 nM

Question: What about the Emax of the same compound?
Answer: 121%

Question: How did the EC50 turn out when `[2H]C([2H])([2H])n1ncc2c(-c3nc(N)c4c(n3)NC(=O)C4(C)C(=O)NCC)nc(CCC(F)(F)C(F)(F)F)nc21` (single isomer, unassigned) [Example 39, 4-Amino-N-ethyl-5-methyl-2-(6-(3,3,4,4,4-pentafluorobutyl)-1-trideuteriomethyl-1H-pyrazolo[3,4-d]pyrimidin-4-yl)-6-oxo-6,7-dihydro-5H-pyrrolo[2,3-d]pyrimidine-5-carboxamide] was run?
Answer: 43 nM

Question: What about the Emax of the same compound?
Answer: 104%

Question: For `Cn1ncc2c(-c3nc(N)c4c(n3)NC(=O)C4(C)N)nc(CCC(F)(F)C(F)(F)F)nc21` (single isomer, unassigned) [Example 50, 4,5-Diamino-5-methyl-2-(1-methyl-6-(3,3,4,4,4-pentafluorobutyl)-1H-pyrazolo[3,4-d]pyrimidin-4-yl)-5H-pyrrolo[2,3-d]pyrimidin-6(7H)-one], which EC50 is on record?
Answer: 1240 nM

Question: And the Emax?
Answer: 101%

Question: How did the EC50 turn out when `[2H]C([2H])([2H])n1ncc2c(-c3nc(N)c4c(n3)NC(=O)C4(C(=O)NC3CC3)C(C)C)nc(CCC(F)(F)C(F)(F)F)nc21` (single isomer, unassigned) [Example 35, 4-Amino-N-cyclopropyl-5-isopropyl-2-(6-(3,3,4,4,4-pentafluorobutyl)-1-trideuteriomethyl-1H-pyrazolo[3,4-d]pyrimidin-4-yl)-6-oxo-6,7-dihydro-5N-pyrrolo[2,3-d]pyrimidine-5-carboxamide] was run?
Answer: 62 nM

Question: What about the Emax of the same compound?
Answer: 107%

Question: Which EC50 does the source give for `[2H]C([2H])([2H])n1ncc2c(-c3nc(N)c4c(n3)NC(=O)C4(CC)C(N)=O)nc(CCC(F)(F)C(F)(F)F)nc21` (single isomer, unassigned) [Example 36, 4-Amino-5-ethyl-2-(6-(3,3,4,4,4-pentafluorobutyl)-1-trideuteriomethyl-1H-pyrazolo[3,4-d]pyrimidin-4-yl)-6-oxo-6,7-dihydro-5H-pyrrolo[2,3-d]pyrimidine-5-carboxamide] here?
Answer: 878 nM

Question: And the Emax?
Answer: 121%

Question: For `Cn1ncc2c(-c3nc(N)c4c(n3)NC(=O)C4(C)NC(=O)c3ccccn3)nc(CCC(F)(F)C(F)(F)F)nc21` (stereo not shown) [Example 51, N-(4-Amino-5-methyl-2-(1-methyl-6-(3,3,4,4,4-pentafluorobutyl)-1H-pyrazolo[3,4-d]pyrimidin-4-yl)-6-oxo-6,7-dihydro-5H-pyrrolo[2,3-d]pyrimidin-5-yl)picolinamide], which EC50 is on record?
Answer: 746 nM

Question: What about the Emax of the same compound?
Answer: 109%

Question: Which results are given for `Cn1ccc2c(-c3nc(N)c4c(n3)NC(=O)C4(C)c3ccccc3)nc(Cc3cccc(F)c3F)nc21` (single isomer, unassigned) [Example 64, 4-Amino-2′-(2,3-difluorobenzyl)-5,7′-dimethyl-5-phenyl-5H,7′H-[2,4′-bipyrrolo[2,3-d]pyrimidin]-6(7H)-one]?
Answer: EC50: 12 nM; Emax: 83%

Question: Which EC50 does the source give for `C#CC1(C2CC2)C(=O)Nc2nc(-c3nc(CCC(F)(F)C(F)(F)F)nc4c3cnn4C)nc(N)c21` (single isomer, unassigned) [Example 24, 4-Amino-5-cyclopropyl-5-ethynyl-2-(1-methyl-6-(3,3,4,4,4-pentafluorobutyl)-1H-pyrazolo[3,4-d]pyrimidin-4-yl)-5H-pyrrolo[2,3-d]pyrimidin-6(7H)-one] here?
Answer: 105 nM

Question: And the Emax?
Answer: 120%

Question: Which EC50 does the source give for `Cn1ncc2c(-c3nc(N)c4c(n3)NC(=O)C4(C)c3ccccc3)nc(CCCC(F)(F)F)nc21` (single isomer, unassigned) [Example 3, 4-Amino-5-methyl-2-(1-methyl-6-(4,4,4-trifluorobutyl)-1H-pyrazolo[3,4-d]pyrimidin-4-yl)-5-phenyl-5H-pyrrolo[2,3-d]pyrimidin-6(7H)-one] here?
Answer: 119 nM

Question: What about the Emax of the same compound?
Answer: 132%

Question: Which results are given for `[2H]C([2H])([2H])n1ncc2c(-c3nc(N)c4c(n3)NC(=O)C4(C(=O)NCC)C3CC3)nc(CCC(F)(F)C(F)(F)F)nc21` (single isomer, unassigned) [Example 29, 4-Amino-5-cyclopropyl-N-ethyl-2-(6-(3,3,4,4,4-pentafluorobutyl)-1-trideuteriomethyl-1H-pyrazolo[3,4-d]pyrimidin-4-yl)-6-oxo-6,7-dihydro-5H-pyrrolo[2,3-d]pyrimidine-5-carboxamide]?
Answer: EC50: 135 nM; Emax: 131%

Question: With `Cn1ncc2c(-c3nc(N)c4c(n3)NC(=O)C4(C)NC(=O)C3CC3)nc(CCC(F)(F)C(F)(F)F)nc21` (stereo not shown) [Example 53, N-(4-Amino-5-methyl-2-(1-methyl-6-(3,3,4,4,4-pentafluorobutyl)-1H-pyrazolo[3,4-d]pyrimidin-4-yl)-6-oxo-6,7-dihydro-5H-pyrrolo[2,3-d]pyrimidin-5-yl)cyclopropanecarboxamide] as the compound, how does the EC50 read?
Answer: 869 nM

Question: What about the Emax of the same compound?
Answer: 104%

Question: With `[2H]C([2H])([2H])n1ncc2c(-c3nc(N)c4c(n3)NC(=O)C4(C(N)=O)C(C)C)nc(CCC(F)(F)C(F)(F)F)nc21` (single isomer, unassigned) [Example 37, 4-Amino-5-isopropyl-2-(6-(3,3,4,4,4-pentafluorobutyl)-1-trideuteriomethyl-1H-pyrazolo[3,4-d]pyrimidin-4-yl)-6-oxo-6,7-dihydro-5H-pyrrolo[2,3-d]pyrimidine-5-carboxamide] as the compound, how does the EC50 read?
Answer: 540 nM

Question: And the Emax?
Answer: 93%

Question: `[2H]C([2H])([2H])n1ncc2c(-c3nc(N)c4c(n3)NC(=O)C4(C)c3ccccc3)nc(CCC(F)(F)C(F)(F)F)nc21` (single isomer, unassigned) [Example 13, 4-Amino-5-methyl-2-(6-(3,3,4,4,4-pentafluorobutyl)-1-trideuteriomethyl-1H-pyrazolo[3,4-d]pyrimidin-4-yl)-5-phenyl-5H-pyrrolo[2,3-d]pyrimidin-6(7H)-one] was tested. Which EC50 did it give?
Answer: 40 nM

Question: What about the Emax of the same compound?
Answer: 101%

Question: For `[2H]C([2H])([2H])n1ncc2c(-c3nc(N)c4c(n3)NC(=O)C4(C)c3cccc(O)c3)nc(CCC(F)(F)C(F)(F)F)nc21` (stereo not shown) [Example 44, 4-Amino-5-(3-hydroxyphenyl)-5-methyl-2-(6-(3,3,4,4,4-pentafluorobutyl)-1-trideuteriomethyl-1H-pyrazolo[3,4-d]pyrimidin-4-yl)-5H-pyrrolo[2,3-d]pyrimidin-6(7H)-one], which EC50 is on record?
Answer: 111 nM

Question: What about the Emax of the same compound?
Answer: 88%

Question: With `Cn1ncc2c(-c3nc(N)c4c(n3)NC(=O)C4(C)NC(=O)CC3CC3)nc(CCC(F)(F)C(F)(F)F)nc21` (stereo not shown) [Example 52, N-(4-Amino-5-methyl-2-(1-methyl-6-(3,3,4,4,4-pentafluorobutyl)-1H-pyrazolo[3,4-d]pyrimidin-4-yl)-6-oxo-6,7-dihydro-5H-pyrrolo[2,3-d]pyrimidin-5-yl)-2-cyclopropylacetamide] as the compound, how does the EC50 read?
Answer: 614 nM

Question: What about the Emax of the same compound?
Answer: 92%
